This is an account of results in patent US20260193264A1, “BENZOYPARAZINE PYRAZINES AND THEIR USES” (FOGHORN THERAPEUTICS INC., priority 2022, published 2026).

Assay [1] concerns the target T1, HiBit-BRG1 fusion protein in stable HeLa cell line expressing HiBit-BRG1 and LgBit (Homo sapiens, UniProt P51532).
T1 construct: expressed in transfected cells
The assay is described as follows: HiBiT-BRG1 cell-based degradation assay (Nano-Glo HiBiT, 24 h). Conditions: HeLa HiBit-BRG1/LgBit cells; for DC50: read-out: BRMG1 HiBit Degradation IC50; for Dmax: top dose 30 μM, read-out: BRG1 HiBit Degradation Maximum (%). In outline:
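Stable HeLa line co-expressing HiBiT-BRG1 and LgBiT, compound-treated 24 h; luminescence read after Nano-Glo HiBiT lytic reagent. % degradation normalised between DMSO (high control) and 2 μM reference BRM/BRG1 degrader (low control).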
In general terms: With HiBiT, luminescence reflects the tagged protein that the partner subunit can reach.

For assay [2], the target named is T2, HiBiT-BRM fusion protein in stable HeLa cell line (Homo sapiens, UniProt P51531).
T2 construct: expressed in transfected cells
T2 sequence (P51531 whole entry, the tested form may be a part): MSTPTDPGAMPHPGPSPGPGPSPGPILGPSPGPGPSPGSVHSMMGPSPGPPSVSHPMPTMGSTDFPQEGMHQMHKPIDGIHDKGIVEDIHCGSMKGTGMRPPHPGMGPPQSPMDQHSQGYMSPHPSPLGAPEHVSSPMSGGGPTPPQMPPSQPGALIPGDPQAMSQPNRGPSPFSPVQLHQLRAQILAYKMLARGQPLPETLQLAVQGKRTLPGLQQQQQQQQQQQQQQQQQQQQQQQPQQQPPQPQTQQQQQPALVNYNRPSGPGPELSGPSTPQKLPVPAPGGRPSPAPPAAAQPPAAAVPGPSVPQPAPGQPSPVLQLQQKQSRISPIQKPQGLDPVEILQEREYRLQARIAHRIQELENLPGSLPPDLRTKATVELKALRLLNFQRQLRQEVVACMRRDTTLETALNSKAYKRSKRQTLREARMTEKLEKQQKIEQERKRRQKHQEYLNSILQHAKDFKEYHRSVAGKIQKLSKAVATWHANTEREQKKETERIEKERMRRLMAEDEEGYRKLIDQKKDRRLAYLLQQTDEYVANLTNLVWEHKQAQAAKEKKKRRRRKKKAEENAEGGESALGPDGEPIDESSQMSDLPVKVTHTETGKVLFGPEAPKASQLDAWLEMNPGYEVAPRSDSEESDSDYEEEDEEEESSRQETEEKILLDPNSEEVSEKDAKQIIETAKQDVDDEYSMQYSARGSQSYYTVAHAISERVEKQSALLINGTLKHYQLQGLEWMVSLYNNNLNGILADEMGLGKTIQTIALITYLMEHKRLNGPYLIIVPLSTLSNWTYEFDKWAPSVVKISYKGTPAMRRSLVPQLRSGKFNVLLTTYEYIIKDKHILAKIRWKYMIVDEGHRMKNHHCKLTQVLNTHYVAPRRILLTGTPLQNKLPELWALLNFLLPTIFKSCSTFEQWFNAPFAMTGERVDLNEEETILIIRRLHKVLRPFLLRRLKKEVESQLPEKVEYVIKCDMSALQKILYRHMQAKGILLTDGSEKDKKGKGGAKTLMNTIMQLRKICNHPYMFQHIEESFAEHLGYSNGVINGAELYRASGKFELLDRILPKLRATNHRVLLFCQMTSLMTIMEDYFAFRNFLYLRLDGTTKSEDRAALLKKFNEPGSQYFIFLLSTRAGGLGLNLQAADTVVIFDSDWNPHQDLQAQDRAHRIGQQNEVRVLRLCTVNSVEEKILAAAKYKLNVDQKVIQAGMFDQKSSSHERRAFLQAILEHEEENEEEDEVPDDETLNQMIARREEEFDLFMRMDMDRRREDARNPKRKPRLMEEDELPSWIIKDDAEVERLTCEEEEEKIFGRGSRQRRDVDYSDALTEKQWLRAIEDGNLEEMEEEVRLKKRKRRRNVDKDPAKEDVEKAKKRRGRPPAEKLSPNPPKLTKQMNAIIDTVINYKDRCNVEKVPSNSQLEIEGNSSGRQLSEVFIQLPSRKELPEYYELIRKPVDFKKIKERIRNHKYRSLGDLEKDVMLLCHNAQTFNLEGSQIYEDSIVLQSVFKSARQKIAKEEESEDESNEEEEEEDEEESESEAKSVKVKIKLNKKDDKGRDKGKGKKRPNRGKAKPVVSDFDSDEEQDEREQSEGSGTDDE
Kind of assay: HiBiT-BRM cell-based degradation assay (Nano-Glo HiBiT Lytic Detection, 24 h). Details: DC50: scale not given here. The settings on record: HeLa HiBiT-BRM cells; for DC50: read-out: BRM HiBit Degradation IC50; for BRM HiBit Degradation Maximum (%): top dose 30 μM. Put shortly:
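Luminescence from HiBiT/LgBiT complementation after lysis reports remaining HiBiT-BRM in stable HeLa cells exposed to compound for 24 h. Dosing used 3-fold serial dilutions, 10 points, 30 μM top final concentration. DMSO and a 2 μM BRM/BRG1 degrader standard defined 0% and 100% degradation.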

T1 sequence (P51532 whole entry, the tested form may be a part): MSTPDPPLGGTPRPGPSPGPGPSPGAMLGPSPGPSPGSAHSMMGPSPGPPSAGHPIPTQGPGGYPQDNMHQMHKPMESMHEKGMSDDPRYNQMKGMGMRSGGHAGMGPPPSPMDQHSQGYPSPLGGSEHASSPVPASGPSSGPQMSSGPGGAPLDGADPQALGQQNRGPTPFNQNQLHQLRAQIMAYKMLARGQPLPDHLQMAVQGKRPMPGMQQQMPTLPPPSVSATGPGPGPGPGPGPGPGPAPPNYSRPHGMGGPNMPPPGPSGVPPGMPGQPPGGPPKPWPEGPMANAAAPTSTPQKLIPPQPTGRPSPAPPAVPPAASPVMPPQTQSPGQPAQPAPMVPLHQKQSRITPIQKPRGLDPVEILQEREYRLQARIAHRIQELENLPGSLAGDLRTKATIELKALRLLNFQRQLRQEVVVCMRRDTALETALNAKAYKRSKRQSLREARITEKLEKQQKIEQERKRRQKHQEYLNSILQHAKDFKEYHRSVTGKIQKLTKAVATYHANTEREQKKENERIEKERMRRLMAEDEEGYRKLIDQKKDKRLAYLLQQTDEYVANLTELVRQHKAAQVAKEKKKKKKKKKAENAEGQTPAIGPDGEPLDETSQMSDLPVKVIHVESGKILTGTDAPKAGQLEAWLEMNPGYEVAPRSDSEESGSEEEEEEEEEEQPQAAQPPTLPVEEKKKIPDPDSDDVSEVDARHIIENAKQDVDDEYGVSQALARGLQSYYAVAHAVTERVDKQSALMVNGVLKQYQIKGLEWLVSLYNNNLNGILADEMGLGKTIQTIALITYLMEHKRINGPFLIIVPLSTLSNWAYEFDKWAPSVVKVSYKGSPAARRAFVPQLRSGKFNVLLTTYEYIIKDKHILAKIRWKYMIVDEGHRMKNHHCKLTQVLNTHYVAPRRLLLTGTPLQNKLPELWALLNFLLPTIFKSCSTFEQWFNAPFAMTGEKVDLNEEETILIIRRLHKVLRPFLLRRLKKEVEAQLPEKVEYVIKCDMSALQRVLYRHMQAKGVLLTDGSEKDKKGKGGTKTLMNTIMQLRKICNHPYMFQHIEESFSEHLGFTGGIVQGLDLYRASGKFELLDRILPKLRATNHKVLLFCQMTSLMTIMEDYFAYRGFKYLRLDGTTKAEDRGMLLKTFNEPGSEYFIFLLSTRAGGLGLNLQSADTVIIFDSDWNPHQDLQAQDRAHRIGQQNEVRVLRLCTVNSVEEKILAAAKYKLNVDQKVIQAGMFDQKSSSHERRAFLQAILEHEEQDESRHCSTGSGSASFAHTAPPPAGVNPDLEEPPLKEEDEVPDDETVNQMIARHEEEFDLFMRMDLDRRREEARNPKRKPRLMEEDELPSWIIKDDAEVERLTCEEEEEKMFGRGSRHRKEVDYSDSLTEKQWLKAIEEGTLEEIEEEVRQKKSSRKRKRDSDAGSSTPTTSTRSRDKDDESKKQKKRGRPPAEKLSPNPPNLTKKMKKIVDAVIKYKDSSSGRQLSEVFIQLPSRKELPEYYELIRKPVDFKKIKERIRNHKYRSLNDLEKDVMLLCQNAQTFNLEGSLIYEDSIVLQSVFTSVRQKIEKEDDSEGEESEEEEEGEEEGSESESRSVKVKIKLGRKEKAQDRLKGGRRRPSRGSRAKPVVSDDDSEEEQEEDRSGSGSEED

As to `Cc1ncsc1-c1ccc([C@H](C)NC(=O)[C@@H]2C[C@@H](O)CN2C(=O)[C@@H](c2cc(N3CC4=C(CN(c5ccc6nnc(-c7ccccc7O)cc6c5)C4)C3)no2)C(C)C)cc1` [Compound 229, (2S,4R)-4-hydroxy-1-((R)-2-(3-(5-(3-(2-hydroxyphenyl)cinnolin-6-yl)-3,4,5,6-tetrahydropyrrolo[3,4-c]pyrrol-2(1H)-yl)isoxazol-5-yl)-3-methylbutanoyl)-N-((S)-1-(4-(4-methylthiazol-5-yl)phenyl)ethyl)pyrrolidine-2-carboxamide], in assay [1], the DC50 was under 10 nM and the Dmax is over 75%. In assay [2], the DC50 was under 10 nM and the “BRM HiBit Degradation Maximum (%)” value is “A (“A” indicates maximum degradation ≥75%)”.
As for `Cc1ncsc1-c1ccc([C@H](C)NC(=O)[C@@H]2C[C@@H](O)CN2C(=O)[C@H](C(C)C)n2cc(C3CC4(CC(c5ccc6nnc(-c7ccccc7O)cc6c5)C4)C3)nn2)cc1` (stereo partly drawn) [Compound 230, (2S,4R)-4-hydroxy-1-((S)-2-(4-(6-(3-(2-hydroxyphenyl)cinnolin-6-yl)spiro[3.3]heptan-2-yl)-1H-1,2,3-triazol-1-yl)-3-methylbutanoyl)-N-((S)-1-(4-(4-methylthiazol-5-yl)phenyl)ethyl)pyrrolidine-2-carboxamide], in assay [1], the DC50 was over 10 nM and the Dmax is over 75%. Further, in assay [2], the DC50 was under 10 nM and the “BRM HiBit Degradation Maximum (%)” value was “A (“A” indicates maximum degradation ≥75%)”.
Take `Cc1ncsc1-c1ccc([C@H](C)NC(=O)[C@@H]2C[C@@H](O)CN2C(=O)[C@@H](c2cc(-c3cnc(N4CC5(CN(c6ccc7cc(-c8ccccc8O)nnc7c6)C5)C4)nc3)no2)C(C)C)cc1` [Compound 231, (2S,4R)-4-hydroxy-1-((R)-2-(3-(2-(6-(3-(2-hydroxyphenyl)cinnolin-7-yl)-2,6-diazaspiro[3.3]heptan-2-yl)pyrimidin-5-yl)isoxazol-5-yl)-3-methylbutanoyl)-N-((S)-1-(4-(4-methylthiazol-5-yl)phenyl)ethyl)pyrrolidine-2-carboxamide]: in assay [1], the DC50 is under 10 nM and the Dmax was over 75%. In assay [2], the DC50 was under 10 nM and the “BRM HiBit Degradation Maximum (%)” value is listed as “A (“A” indicates maximum degradation ≥75%)”.
Regarding `Cc1ncsc1-c1ccc([C@H](C)NC(=O)[C@@H]2C[C@@H](O)CN2C(=O)[C@@H](c2cc(N3CC4(CN(Cc5ccc6cc(-c7ccccc7O)nnc6c5)C4)C3)no2)C(C)C)cc1` [Compound 232, (2S,4R)-4-hydroxy-1-((R)-2-(3-(6-((3-(2-hydroxyphenyl)cinnolin-7-yl)methyl)-2,6-diazaspiro[3.3]heptan-2-yl)isoxazol-5-yl)-3-methylbutanoyl)-N-((S)-1-(4-(4-methylthiazol-5-yl)phenyl)ethyl)pyrrolidine-2-carboxamide], the Dmax in assay [1] is under 50%. In addition, in assay [2], the DC50 was over 10 nM and the “BRM HiBit Degradation Maximum (%)” value is on record as “A (“A” indicates maximum degradation ≥75%)”.
Regarding `Cc1ncsc1-c1ccc([C@H](C)NC(=O)[C@@H]2C[C@@H](O)CN2C(=O)C(C(C)C)n2cc(N3CCC4(CCN(c5ccc6cc(-c7ccccc7O)nnc6c5)CC4)C3)nn2)cc1` (stereo partly drawn) [Compound 233, (2S,4R)-4-hydroxy-1-(2-(4-(8-(3-(2-hydroxyphenyl)cinnolin-7-yl)-2,8-diazaspiro[4.5]decan-2-yl)-1H-1,2,3-triazol-1-yl)-3-methylbutanoyl)-N-((S)-1-(4-(4-methylthiazol-5-yl)phenyl)ethyl)pyrrolidine-2-carboxamide], in assay [1], the DC50 was under 10 nM and the Dmax is over 75%. Besides, in assay [2], the DC50 is under 10 nM and the “BRM HiBit Degradation Maximum (%)” value is recorded as “A (“A” indicates maximum degradation ≥75%)”.
Take `Cc1ncsc1-c1ccc([C@H](C)NC(=O)[C@@H]2C[C@@H](O)CN2C(=O)C(C(C)C)n2cc(N3CCC4(CC3)CCN4c3ccc4cc(-c5ccccc5O)nnc4c3)nn2)cc1` (stereo partly drawn) [Compound 234, (2S,4R)-4-hydroxy-1-(2-(4-(1-(3-(2-hydroxyphenyl)cinnolin-7-yl)-1,7-diazaspiro[3.5]nonan-7-yl)-1H-1,2,3-triazol-1-yl)-3-methylbutanoyl)-N-((S)-1-(4-(4-methylthiazol-5-yl)phenyl)ethyl)pyrrolidine-2-carboxamide]: in assay [1], the DC50 was over 10 nM and the Dmax is over 50%. Also, in assay [2], the DC50 is under 10 nM and the “BRM HiBit Degradation Maximum (%)” value is “A (“A” indicates maximum degradation ≥75%)”.
Take `Cc1ncsc1-c1ccc([C@H](C)NC(=O)[C@@H]2C[C@@H](O)CN2C(=O)C(C(C)C)n2cc(N3CCC(C4CN(c5ccc6cc(-c7ccccc7O)nnc6c5)C4)C3)nn2)cc1` (stereo partly drawn) [Compound 235, (2S,4R)-4-hydroxy-1-(2-(4-(3-(1-(3-(2-hydroxyphenyl)cinnolin-7-yl)azetidin-3-yl)pyrrolidin-1-yl)-1H-1,2,3-triazol-1-yl)-3-methylbutanoyl)-N-((S)-1-(4-(4-methylthiazol-5-yl)phenyl)ethyl)pyrrolidine-2-carboxamide]: in assay [1], the DC50 is over 10 nM and the Dmax was over 75%. In assay [2], the DC50 was under 10 nM and the “BRM HiBit Degradation Maximum (%)” value is recorded as “A (“A” indicates maximum degradation ≥75%)”.
Consider `CC(C)[C@@H](C(=O)N1C[C@H](O)C[C@H]1C(=O)N[C@@H](C)c1ccc(F)cc1)c1cc(N2CC3(C2)CN(c2cc4nnc(-c5ccccc5O)cc4cc2C(F)F)C3)no1` [Compound 236, (2S,4R)-1-((R)-2-(3-(6-(6-(difluoromethyl)-3-(2-hydroxyphenyl)cinnolin-7-yl)-2,6-diazaspiro[3.3]heptan-2-yl)isoxazol-5-yl)-3-methylbutanoyl)-N-((S)-1-(4-fluorophenyl)ethyl)-4-hydroxypyrrolidine-2-carboxamide], for which, in assay [1], the Dmax was under 50%. In addition, in assay [2], the DC50 was over 10 nM and the “BRM HiBit Degradation Maximum (%)” value is reported as “A (“A” indicates maximum degradation ≥75%)”.
For `CCOc1cc2cc(-c3ccccc3O)nnc2cc1N1CC2(CN(c3cc([C@H](C(=O)N4C[C@H](O)C[C@H]4C(=O)N[C@@H](C)c4ccc(-c5scnc5C)cc4)C(C)C)on3)C2)C1` [Compound 237, (2S,4R)-1-((R)-2-(3-(6-(6-ethoxy-3-(2-hydroxyphenyl)cinnolin-7-yl)-2,6-diazaspiro[3.3]heptan-2-yl)isoxazol-5-yl)-3-methylbutanoyl)-4-hydroxy-N-((S)-1-(4-(4-methylthiazol-5-yl)phenyl)ethyl)pyrrolidine-2-carboxamide], in assay [1], the DC50 is under 10 nM and the Dmax is over 75%. Further, in assay [2], the DC50 was under 10 nM and the “BRM HiBit Degradation Maximum (%)” value is recorded as “A (“A” indicates maximum degradation ≥75%)”.
Turning to `C#Cc1ccc(CNC(=O)[C@@H]2C[C@@H](O)CN2C(=O)[C@H](C(C)C)n2cc(N3CC4(CN(c5ccc6cc(-c7ccccc7O)nnc6c5)C4)C3)nn2)c(OC)c1` [Compound 238, (2S,4R)-N-(4-ethynyl-2-methoxybenzyl)-4-hydroxy-1-((S)-2-(4-(6-(3-(2-hydroxyphenyl)cinnolin-7-yl)-2,6-diazaspiro[3.3]heptan-2-yl)-1H-1,2,3-triazol-1-yl)-3-methylbutanoyl)pyrrolidine-2-carboxamide], the Dmax in assay [1] was under 50%. In addition, in assay [2], the DC50 is under 10 nM and the “BRM HiBit Degradation Maximum (%)” value is reported as “A (“A” indicates maximum degradation ≥75%)”.
As to `C#Cc1cc2cc(-c3ccccc3O)nnc2cc1N1CC2(CN(c3cc([C@H](C(=O)N4C[C@H](O)C[C@H]4C(=O)N[C@@H](C)c4ccc(-c5scnc5C)cc4)C(C)C)on3)C2)C1` [Compound 239, (2S,4R)-1-((R)-2-(3-(6-(6-ethynyl-3-(2-hydroxyphenyl)cinnolin-7-yl)-2,6-diazaspiro[3.3]heptan-2-yl)isoxazol-5-yl)-3-methylbutanoyl)-4-hydroxy-N-((S)-1-(4-(4-methylthiazol-5-yl)phenyl)ethyl)pyrrolidine-2-carboxamide], in assay [1], the DC50 is over 10 nM and the Dmax was over 50%. In addition, in assay [2], the DC50 is under 10 nM and the “BRM HiBit Degradation Maximum (%)” value was “A (“A” indicates maximum degradation ≥75%)”.
Regarding `C#Cc1cc(N2CC3(C2)CN(c2cc([C@H](C(=O)N4C[C@H](O)C[C@H]4C(=O)N[C@@H](C)c4ccc(-c5scnc5C)cc4)C(C)C)on2)C3)cc2nnc(-c3ccccc3O)cc12` [Compound 240, (2S,4R)-1-((R)-2-(3-(6-(5-ethynyl-3-(2-hydroxyphenyl)cinnolin-7-yl)-2,6-diazaspiro[3.3]heptan-2-yl)isoxazol-5-yl)-3-methylbutanoyl)-4-hydroxy-N-((S)-1-(4-(4-methylthiazol-5-yl)phenyl)ethyl)pyrrolidine-2-carboxamide], the Dmax in assay [1] was under 50%. Also, in assay [2], the DC50 is under 10 nM and the “BRM HiBit Degradation Maximum (%)” value is listed as “A (“A” indicates maximum degradation ≥75%)”.
Consider `C#Cc1cc2nnc(-c3ccccc3O)cc2cc1N1CC2(CN(c3cc([C@H](C(=O)N4C[C@H](O)C[C@H]4C(=O)N[C@@H](C)c4ccc(-c5scnc5C)cc4)C(C)C)on3)C2)C1` [Compound 241, (2S,4R)-1-((R)-2-(3-(6-(7-ethynyl-3-(2-hydroxyphenyl)cinnolin-6-yl)-2,6-diazaspiro[3.3]heptan-2-yl)isoxazol-5-yl)-3-methylbutanoyl)-4-hydroxy-N-((S)-1-(4-(4-methylthiazol-5-yl)phenyl)ethyl)pyrrolidine-2-carboxamide], for which, in assay [1], the DC50 is under 10 nM and the Dmax was over 75%. In addition, in assay [2], the DC50 is under 10 nM and the “BRM HiBit Degradation Maximum (%)” value is reported as “A (“A” indicates maximum degradation ≥75%)”.
